This note sets out measurements from patent US8084644B2, “Iminopropene compound and use thereof” (Sumitomo Chemical Company, Limited, priority 2005, dated 2011).

The test system of this test is Haemaphysalis longicornis. Nature of the test: Test Example 11: filter paper bag contact test on ticks. It counts as in vivo. As to conditions: 48 h, 0.5 mg test compound on 5 cm×10 cm filter paper, after 2 days. As for the experimental part: 0.5 mg of the test compound was dissolved to […]. Onto one side of filter paper having 5 cm×10 cm, the solution was applied uniformly and then air-dried. Thereafter, the filter paper was folded in half and fixed by paper clips at the side to form bag like shape. Ten Haemaphysalis longicornis was put into the bag, and then the bag was closed with a paper clip. After 2 days, the number of dead insects was examined.

`Clc1ccccc1SC(C=CSc1ccccc1)=Nc1ccccc1` [(4), 2-Chlorophenyl N-phenyl-3-(phenylthio)thioacrylimidate] registered a mortality at 0.5 mg/filter paper of 100%.

In turn, `Cc1cc(C)cc(SC=CC(=Nc2ccccc2)Oc2ccccc2)c1` [(121), Phenyl 3-(3,5-dimethylphenylthio)-N-phenylacrylimidate] returned a mortality at 0.5 mg/filter paper of 100%.

The compound `Cc1ccc(SC=CC(=Nc2ccccc2)Oc2ccccc2)c(C)c1` [(119), Phenyl 3-(2,4-dimethylphenylthio)-N-phenylacrylimidate] showed a mortality at 0.5 mg/filter paper of 100%.

Compound `Brc1ccc(N=C(C=COc2ccccc2)Oc2ccccc2)cc1` [(77), Phenyl N-(4-bromophenyl)-3-(phenoxy)acrylimidate] came in with a mortality at 0.5 mg/filter paper of 100%.

With `Cc1cccc(N=C(C=COc2ccccc2)Oc2ccccc2)c1` [(69), Phenyl N-(3-methylphenyl)-3-(phenoxy)acrylimidate], the mortality at 0.5 mg/filter paper is 100%.

The compound `CCc1ccc(N=C(C=CSc2ccccc2)Oc2ccccc2)cc1` [(63), Phenyl N-(4-ethylphenyl)-3-(phenylthio)acrylimidate] showed a mortality at 0.5 mg/filter paper of 100%.

`Cc1ccc(N=C(C=CSc2ccccc2)SCC(C)C)cc1` [(321), 2-Methylpropyl N-(4-methylphenyl)-3-(phenylthio)thioacrylimidate]: the mortality at 0.5 mg/filter paper came out at 100%.

As to `Clc1ccc(N=C(C=COc2ccccc2)Oc2ccccc2)cc1` [(43), Phenyl N-(4-chlorophenyl)-3-(phenoxy)acrylimidate], the mortality at 0.5 mg/filter paper was found to be 100%.

Compound `Fc1ccc(SC=CC(=Nc2ccccc2)Oc2ccccc2)cc1` [(103), Phenyl 3-(4-fluorophenylthio)-N-phenylacrylimidate] had a mortality at 0.5 mg/filter paper of 100%.

Compound `FC(F)(F)c1ccc(SC=CC(=Nc2ccccc2)Oc2ccccc2)cc1` [(123), Phenyl N-phenyl-3-(4-trifluoromethylphenylthio)acrylimidate] showed a mortality at 0.5 mg/filter paper of 100%.

Turning to `Ic1ccc(N=C(C=COc2ccccc2)Oc2ccccc2)cc1` [(80), Phenyl N-(4-iodophenyl)-3-(phenoxy)acrylimidate], the mortality at 0.5 mg/filter paper turned out to be 100%.

`Cc1ccc(N=C(C=CSc2ccc(C)cc2)SCC(C)C)cc1` [(443), Isobutyl N-(4-methylphenyl)-3-(4-methylphenylthio)thioacrylimidate] returned a mortality at 0.5 mg/filter paper of 100%.

In turn, `COc1ccc(SC=CC(=Nc2ccccc2)Oc2ccccc2)cc1` [(146), Phenyl 3-(4-methoxyphenylthio)-N-phenylacrylimidate] registered a mortality at 0.5 mg/filter paper of 100%.

Compound `Cc1ccc(N=C(C=CSc2ccccc2)Sc2cccs2)cc1` [(480), 2-Thienyl N-(4-methylphenyl)-3-(phenylthio)thioacrylimidate] showed a mortality at 0.5 mg/filter paper of 100%.

Compound `Fc1ccccc1SC=CC(=Nc1ccccc1)Oc1ccccc1` [(104), Phenyl 3-(2-fluorophenylthio)-N-phenylacrylimidate] returned a mortality at 0.5 mg/filter paper of 100%.

In the case of `Cc1ccc(N=C(C=CSc2ccc(Cl)cc2)SC2CCCCC2)cc1` [(472), Cyclohexyl 3-(4-chlorophenylthio)-N-(4-methylphenyl)thioacrylimidate], the mortality at 0.5 mg/filter paper was 100%.

Compound `C(=CC(=Nc1ccccc1)Oc1ccccc1)Sc1ccccc1` [(37), Phenyl N-phenyl-3-(phenylthio)acrylimidate] had a mortality at 0.5 mg/filter paper of 100%.

`Clc1cccc(SC(C=CSc2ccccc2)=Nc2ccccc2)c1` [(3), 3-Chlorophenyl N-phenyl-3-(phenylthio)thioacrylimidate]: the mortality at 0.5 mg/filter paper was determined as 100%.

`Fc1cccc(SC=CC(=Nc2ccccc2)Oc2ccccc2)c1` [(113), Phenyl 3-(3-fluorophenylthio)-N-phenylacrylimidate] returned a mortality at 0.5 mg/filter paper of 100%.

Turning to `Cc1ccc(OC(C=CSc2ccccc2)=Nc2ccc(C(C)C)cc2)cc1` [(88), 4-Methylphenyl N-[4-(1-methylethyl)phenyl]-3-(phenylthio)acrylimidate], the mortality at 0.5 mg/filter paper is 100%.

Turning to `Cc1ccc(N=C(C=CSc2ccc(C)cc2)SC2CCCCC2)cc1` [(473), Cyclohexyl N-(4-methylphenyl)-3-(4-methylphenylthio)thioacrylimidate], the mortality at 0.5 mg/filter paper was 100%.

In the case of `Fc1ccc(N=C(C=COc2ccccc2)Oc2ccccc2)cc1` [(75), Phenyl N-(4-fluorophenyl)-3-(phenoxy)acrylimidate], the mortality at 0.5 mg/filter paper was found to be 100%.

`Cc1ccc(N=C(C=CSc2cccc(Cl)c2)SCC(C)C)cc1` [(434), Isobutyl 3-(3-chlorophenylthio)-N-(4-methylphenyl)thioacrylimidate] yielded a mortality at 0.5 mg/filter paper of 100%.

`FC(F)(F)c1cccc(SC=CC(=Nc2ccccc2)Oc2ccccc2)c1` [(111), Phenyl N-phenyl-3-(3-trifluoromethylphenylthio)acrylimidate] displayed a mortality at 0.5 mg/filter paper of 100%.

`Clc1cccc(N=C(C=COc2ccccc2)Oc2ccccc2)c1` [(45), Phenyl N-(3-chlorophenyl)-3-(phenoxy)acrylimidate] yielded a mortality at 0.5 mg/filter paper of 100%.

As for `CCCCSC(C=CSc1ccccc1)=Nc1ccc(C)cc1` [(284), Butyl N-(4-methylphenyl)-3-(phenylthio)thioacrylimidate], the mortality at 0.5 mg/filter paper was determined as 100%.

`COc1cccc(SC=CC(=Nc2ccc(C)cc2)SCC(C)C)c1` [(446), Isobutyl 3-(3-methoxyphenylthio)-N-(4-methylphenyl)thioacrylimidate] came in with a mortality at 0.5 mg/filter paper of 100%.

Take `CCCSC(C=CSc1ccccc1)=Nc1ccc(C)cc1` [(280), Propyl N-(4-methylphenyl)-3-(phenylthio)thioacrylimidate]: the mortality at 0.5 mg/filter paper came out at 100%.

`C(=CC(=Nc1ccccc1)Sc1ccccc1)Sc1ccccc1` [(1), Phenyl N-phenyl-3-(phenylthio)thioacrylimidate]: the mortality at 0.5 mg/filter paper came out at 100%.

For `Cc1ccc(N=C(C=CSc2ccccc2)SC2CCCCC2)cc1` [(470), Cyclohexyl N-(4-methylphenyl)-3-(phenylthio)thioacrylimidate], the mortality at 0.5 mg/filter paper amounted to 100%.

In the case of `FC(F)(F)c1ccc(N=C(C=CSc2ccccc2)Oc2ccccc2)cc1` [(52), Phenyl N-(4-trifluoromethylphenyl)-3-(phenylthio)acrylimidate], the mortality at 0.5 mg/filter paper was found to be 100%.

`Fc1ccc(N=C(C=CSc2ccccc2)Oc2ccccc2)cc1` [(50), Phenyl N-(4-fluorophenyl)-3-(phenylthio)acrylimidate] displayed a mortality at 0.5 mg/filter paper of 100%.

As to `CCC(C)SC(C=CSc1ccccc1)=Nc1ccc(C)cc1` (stereo not drawn) [(324), 1-Methylpropyl N-(4-methylphenyl)-3-(phenylthio)thioacrylimidate], the mortality at 0.5 mg/filter paper came to 100%.

Regarding `Fc1ccc(SC=CC(=Nc2ccccc2)SC2CCCCC2)cc1` [(469), Cyclohexyl 3-(4-fluorophenylthio)-N-(phenyl)thioacrylimidate], the mortality at 0.5 mg/filter paper was determined as 100%.

Take `Cc1ccc(N=C(C=CSc2ccccc2F)SCC2CCCCC2)cc1` [(341), Cyclohexylmethyl 3-(2-fluorophenylthio)-N-(4-methylphenyl)-thioacrylimidate]: the mortality at 0.5 mg/filter paper amounted to 100%.

In the case of `CC(C)c1ccccc1SC=CC(=Nc1ccccc1)Oc1ccccc1` [(122), Phenyl 3-[2-(1-methylethyl)phenylthio]-N-phenylacrylimidate], the mortality at 0.5 mg/filter paper turned out to be 100%.

Compound `CCCCSC(C=CSc1ccc(Cl)cc1)=Nc1ccc(C)cc1` [(475), Butyl 3-(4-chlorophenylthio)-N-(4-methylphenyl)thioacrylimidate] registered a mortality at 0.5 mg/filter paper of 100%.

`Cc1ccc(N=C(C=CSc2ccccc2F)SCC(C)C)cc1` [(428), Isobutyl 3-(2-fluorophenylthio)-N-(4-methylphenyl)thioacrylimidate] gave a mortality at 0.5 mg/filter paper of 100%.

As for `Cc1ccc(C)c(SC=CC(=Nc2ccccc2)Oc2ccccc2)c1` [(120), Phenyl 3-(2,5-dimethylphenylthio)-N-phenylacrylimidate], the mortality at 0.5 mg/filter paper was 100%.

Compound `Brc1cccc(SC=CC(=Nc2ccccc2)Oc2ccccc2)c1` [(101), Phenyl 3-(3-bromophenylthio)-N-phenylacrylimidate] yielded a mortality at 0.5 mg/filter paper of 100%.

Consider `CCSC(C=CSc1ccccc1)=Nc1ccc(C)cc1` [(266), Ethyl N-(4-methylphenyl)-3-(phenylthio)thioacrylimidate], for which the mortality at 0.5 mg/filter paper was found to be 100%.

The compound `COc1cccc(SC=CC(=Nc2ccccc2)Oc2ccccc2)c1` [(107), Phenyl 3-(3-methoxyphenylthio)-N-phenylacrylimidate] yielded a mortality at 0.5 mg/filter paper of 100%.

The compound `C(=CC(=Nc1ccccc1)Sc1ccccc1)Oc1ccccc1` [(35), Phenyl N-phenyl-3-(phenoxy)thioacrylimidate] gave a mortality at 0.5 mg/filter paper of 100%.

As for `Cc1ccc(N=C(C=CSc2ccccc2C)SCC(C)C)cc1` [(441), Isobutyl N-(4-methylphenyl)-3-(2-methylphenylthio)thioacrylimidate], the mortality at 0.5 mg/filter paper came out at 100%.

Regarding `Fc1ccccc1N=C(C=CSc1ccccc1)Oc1ccccc1` [(48), Phenyl N-(2-fluorophenyl)-3-(phenylthio)acrylimidate], the mortality at 0.5 mg/filter paper is 100%.

`COc1ccc(SC=CC(=Nc2ccc(C)cc2)SCC(C)C)cc1` [(447), Isobutyl 3-(4-methoxyphenylthio)-N-(4-methylphenyl)thioacrylimidate] displayed a mortality at 0.5 mg/filter paper of 100%.

`Brc1ccc(SC=CC(=Nc2ccccc2)Oc2ccccc2)cc1` [(102), Phenyl 3-(4-bromophenylthio)-N-phenylacrylimidate] came in with a mortality at 0.5 mg/filter paper of 100%.

On to `Cc1ccc(N=C(C=CSc2cccc(F)c2)SCC(C)C)cc1` [(429), Isobutyl 3-(3-fluorophenylthio)-N-(4-methylphenyl)thioacrylimidate], for which the mortality at 0.5 mg/filter paper was 100%.

As usually defined, the mortality is the share of the test organisms that died.
